Assay results as given in ChEMBL document CHEMBL4177524, “Discovery of hepatitis B virus capsid assembly inhibitors leading to a heteroaryldihydropyrimidine based clinical candidate (GLS4)” (Bioorg Med Chem, 2017).
pEC50: −log10 of the molar value.

Columns and labels:
Hepatitis B virus [1] = assay: Antiviral activity against lamivudine-resistant hepatitis B virus harboring reverse transcriptase M204I mutant infected in human Huh7 cells assessed as reduction in intracellular DNA levels measured on day 7 by real-time PCR analysis; assay type: functional, organism-based; conditions: Huh-7, 168 h
Hepatitis B virus [2] = assay: Antiviral activity against lamivudine-resistant hepatitis B virus harboring reverse transcriptase M204I/V173L double mutant infected in human Huh7 cells assessed as reduction in intracellular DNA levels measured on day 7 by real-time PCR analysis; assay type: functional, organism-based; conditions: Huh-7, 168 h
Hepatitis B virus [3] = assay: Antiviral activity against hepatitis B virus infected in human HepG2.215 cells assessed as reduction in viral DNA replication measured on day 7 by real time PCR analysis; assay type: functional, organism-based; conditions: HepG2.2.15, 168 h
Hepatitis B virus [4] = assay: Antiviral activity against lamivudine-resistant wild type hepatitis B virus infected in human Huh7 cells assessed as reduction in intracellular DNA levels measured on day 7 by real-time PCR analysis; assay type: functional, organism-based; conditions: Huh-7, 168 h
Hepatitis B virus [5] = assay: Antiviral activity against lamivudine-resistant hepatitis B virus harboring reverse transcriptase M204I/V173L double mutant infected in human Huh7 cells assessed as reduction in secreted DNA levels measured on day 7 by real-time PCR analysis; assay type: functional, organism-based; conditions: Huh-7, 168 h
Hepatitis B virus [6] = assay: Antiviral activity against lamivudine-resistant hepatitis B virus harboring reverse transcriptase M204I mutant infected in human Huh7 cells assessed as reduction in secreted DNA levels measured on day 7 by real-time PCR analysis; assay type: functional, organism-based; conditions: Huh-7, 168 h
[7] = Cytotoxicity in human HepG2.215 cells assessed as reduction in cell viability after 5 days by CCK8 assay; assay type: cell-based, HepG2 2.2.15; conditions: HepG2.2.15 cells
Hepatitis B virus [8] = assay: Antiviral activity against lamivudine-resistant wild type hepatitis B virus infected in human Huh7 cells assessed as reduction in secreted DNA levels measured on day 7 by real-time PCR analysis; assay type: functional, organism-based; conditions: Huh-7, 168 h

## Nc1ccn([C@@H]2CS[C@H](CO)O2)c(=O)n1 [LAMIVUDINE]
Hepatitis B virus [1]
  pEC50: < 4.70
Hepatitis B virus [2]
  pEC50: < 4.70
Hepatitis B virus [3]
  pEC50: 7.00
  EC90: 2 µM
Hepatitis B virus [4]
  pEC50: 6.63
Hepatitis B virus [5]
  pEC50: < 4.70
Hepatitis B virus [6]
  pEC50: < 4.70
[7]
  CC50 at 120 h: 1020 µM
Hepatitis B virus [8]
  pEC50: 7.26
